Marks after values point to notes of the source that are not given here.
How the values were obtained:
[1] = Preliminary toxicology, subcutaneous injection for 14 days; type: in vivo, CD-1 female mice; details: CD-1 female mice; 80 mg/kg/day s.c. 14 days
Protocol: The toxicological effects of CLT, and compounds 28, 30 and 31 were tested in CD-1 female mice. A dose of 80 mg/kg/day was given to each mouse via subcutaneous injection for a period of 14 days. Preliminary toxicological data was determined by measuring body weight, gross pathology of organs blood chemistry and histology. The vehicle used was DMF 12%+2% Tween 20 88%.

[2] = system: H460 large cell lung carcinoma; experiment: Mouse xenograft tumor growth; type: in vivo, CD-1 nude mice
[3] = system: A2058 metastatic melanoma; experiment: Mouse xenograft tumor growth; type: in vivo, CD-1 nude mice
Protocol: NCI-A2058 human melanoma cell line was grown as monolayer culture in Minimum essential medium (D-MEM) supplemented with 10% fetal bovine serum (FBS), 0.1 mM non-essential amino acid, 1.0 mM sodium pyruvate, 100U/ml penicillin, 100 μg/ml streptomycin and 0.25 μg/ml amphotericin B and L-alanyl-1-glutamine (2 mM) at 37° C. in an atmosphere of 5% CO2 in air. The tumor cells were routinely subcultured twice weekly by trypsin-EDTA treatment. The cells were harvested from subconfluent logarithmically growing culture by treatment with typsin-EDTA and counted for tumor inoculation.
An acclimation period of at least 7 days were allowed between animal receipt and commence of tumor inoculation. When the female CD-1 nude mice were more than 6-7 weeks of age (20-25 g), each mouse was subcutaneously injected with 5.0×10^6 NCI-A2058 human melanoma cells in 0.1 ml of PBS solution at the right flank of the mice to induce tumor growth.

CCRF-CEM = experiment: In-Vitro Testing SRB panel: Leukemia; type: cell-based; details: 48 h
MOLT-4 = experiment: In-Vitro Testing SRB panel: Leukemia; type: cell-based; details: MOLT-4, 48 h
HCT-116 = experiment: In-Vitro Testing SRB panel: Colon Cancer; type: cell-based; details: HCT-116, 48 h
KM12 = experiment: In-Vitro Testing SRB panel: Colon Cancer; type: cell-based; details: KM12, 48 h
SF-268 = experiment: In-Vitro Testing SRB panel: CNS Cancer; type: cell-based; details: SF-268, 48 h
SF-295 = experiment: In-Vitro Testing SRB panel: CNS Cancer; type: cell-based; details: SF-295, 48 h
SNB-75 = experiment: In-Vitro Testing SRB panel: CNS Cancer; type: cell-based; details: SNB-75, 48 h
SK-MEL-5 = experiment: In-Vitro Testing SRB panel: Melanoma; type: cell-based; details: SK-MEL-5, 48 h
OVCAR-8 = experiment: In-Vitro Testing SRB panel: Ovarian Cancer; type: cell-based; details: OVCAR-8, 48 h
786-0 = experiment: In-Vitro Testing SRB panel: Renal Cancer; type: cell-based; details: 786-0, 48 h
ACHN = experiment: In-Vitro Testing SRB panel: Renal Cancer; type: cell-based; details: 48 h
RXF 393 = experiment: In-Vitro Testing SRB panel: Renal Cancer; type: cell-based; details: RXF 393, 48 h
T-47D = experiment: In-Vitro Testing SRB panel: Breast Cancer; type: cell-based; details: 48 h
[4] = Homo sapiens, read-out: LC50 (the source's name)

SMILES: O=C(c1ccc([N+](=O)[O-])cc1)N1Cc2ccccc2C(c2ccccc2Cl)c2ccccc21 (stereo not drawn) [Compound 28, N-(4′-Nitrobenzoyl)-11-(2′-chlorophenyl)-5,6-dihydro-11H-dibenz[b,e]azepine]
- Body Weight Change [1]: 107%
- Liver Weight [1]: 1.51 ± 0.08^c g
- RBC [1]: 8.1 ± 0.6 10^6/mm^3
- WBC [1]: 7.5 ± 0.8 10^3/mm^3
- WBC, RBC, BUN and creatine levels [1]: no differences were found
- tumor growth [2]: significantly inhibited tumor growth
- tumor growth [3]: significantly inhibited tumor growth
- TGI (CCRF-CEM): 2.99E−06 Molar
- GI50 (CCRF-CEM; Homo sapiens): 90.9 nM
- CC50 (CCRF-CEM; [4]): > 100000 nM
- Percent Growth (CCRF-CEM; log10 conc −4.0 Molar): −3%
- Percent Growth (CCRF-CEM; log10 conc −5.0 Molar): −11%
- Percent Growth (CCRF-CEM; log10 conc −6.0 Molar): 10%
- Percent Growth (CCRF-CEM; log10 conc −7.0 Molar): 49%
- Percent Growth (CCRF-CEM; log10 conc −8.0 Molar): 66%
- GI50 (MOLT-4; Homo sapiens): 700 nM
- CC50 (MOLT-4; [4]): > 100000 nM
- TGI (MOLT-4): >1.00E−04 Molar
- Percent Growth (MOLT-4; log10 conc −4.0 Molar): 24%
- Percent Growth (MOLT-4; log10 conc −5.0 Molar): 24%
- Percent Growth (MOLT-4; log10 conc −6.0 Molar): 44%
- Percent Growth (MOLT-4; log10 conc −7.0 Molar): 82%
- Percent Growth (MOLT-4; log10 conc −8.0 Molar): 109%
- TGI (HCT-116): >1.00E−04 Molar
- Percent Growth (HCT-116; log10 conc −4.0 Molar): 11%
- Percent Growth (HCT-116; log10 conc −5.0 Molar): 19%
- Percent Growth (HCT-116; log10 conc −6.0 Molar): 27%
- Percent Growth (HCT-116; log10 conc −7.0 Molar): 93%
- Percent Growth (HCT-116; log10 conc −8.0 Molar): 103%
- GI50 (HCT-116; Homo sapiens): 447 nM
- CC50 (HCT-116; [4]): > 100000 nM
- GI50 (KM12; Homo sapiens): 765 nM
- CC50 (KM12; [4]): > 100000 nM
- TGI (KM12): >1.00E−04 Molar
- Percent Growth (KM12; log10 conc −4.0 Molar): 15%
- Percent Growth (KM12; log10 conc −5.0 Molar): 26%
- Percent Growth (KM12; log10 conc −6.0 Molar): 45%
- Percent Growth (KM12; log10 conc −7.0 Molar): 84%
- Percent Growth (KM12; log10 conc −8.0 Molar): 94%
- GI50 (SF-268; Homo sapiens): 1660 nM
- CC50 (SF-268; [4]): > 100000 nM
- TGI (SF-268): >1.00E−04 Molar
- Percent Growth (SF-268; log10 conc −4.0 Molar): 19%
- Percent Growth (SF-268; log10 conc −5.0 Molar): 34%
- Percent Growth (SF-268; log10 conc −6.0 Molar): 55%
- Percent Growth (SF-268; log10 conc −7.0 Molar): 81%
- Percent Growth (SF-268; log10 conc −8.0 Molar): 94%
- GI50 (SF-295; Homo sapiens): 442 nM
- CC50 (SF-295; [4]): > 100000 nM
- TGI (SF-295): >1.00E−04 Molar
- Percent Growth (SF-295; log10 conc −4.0 Molar): 10%
- Percent Growth (SF-295; log10 conc −5.0 Molar): 20%
- Percent Growth (SF-295; log10 conc −6.0 Molar): 36%
- Percent Growth (SF-295; log10 conc −7.0 Molar): 75%
- Percent Growth (SF-295; log10 conc −8.0 Molar): 88%
- GI50 (SNB-75; Homo sapiens): 5250 nM
- CC50 (SNB-75; [4]): > 100000 nM
- TGI (SNB-75): >1.00E−04 Molar
- Percent Growth (SNB-75; log10 conc −4.0 Molar): 17%
- Percent Growth (SNB-75; log10 conc −5.0 Molar): 26%
- Percent Growth (SNB-75; log10 conc −6.0 Molar): 75%
- Percent Growth (SNB-75; log10 conc −7.0 Molar): 111%
- Percent Growth (SNB-75; log10 conc −8.0 Molar): 108%
- GI50 (SK-MEL-5; Homo sapiens): 529 nM
- CC50 (SK-MEL-5; [4]): > 100000 nM
- TGI (SK-MEL-5): 1.74E−05 Molar
- Percent Growth (SK-MEL-5; log10 conc −4.0 Molar): −25%
- Percent Growth (SK-MEL-5; log10 conc −5.0 Molar): 8%
- Percent Growth (SK-MEL-5; log10 conc −6.0 Molar): 40%
- Percent Growth (SK-MEL-5; log10 conc −7.0 Molar): 76%
- Percent Growth (SK-MEL-5; log10 conc −8.0 Molar): 84%
- GI50 (OVCAR-8; Homo sapiens): 2860 nM
- CC50 (OVCAR-8; [4]): > 100000 nM
- TGI (OVCAR-8): >1.00E−04 Molar
- Percent Growth (OVCAR-8; log10 conc −4.0 Molar): 28%
- Percent Growth (OVCAR-8; log10 conc −5.0 Molar): 33%
- Percent Growth (OVCAR-8; log10 conc −6.0 Molar): 64%
- Percent Growth (OVCAR-8; log10 conc −7.0 Molar): 102%
- Percent Growth (OVCAR-8; log10 conc −8.0 Molar): 105%
- TGI (786-0): >1.00E−04 Molar
- Percent Growth (786-0; log10 conc −4.0 Molar): 27%
- Percent Growth (786-0; log10 conc −5.0 Molar): 31%
- Percent Growth (786-0; log10 conc −6.0 Molar): 51%
- Percent Growth (786-0; log10 conc −7.0 Molar): 102%
- Percent Growth (786-0; log10 conc −8.0 Molar): 100%
- GI50 (786-0; Homo sapiens): 1160 nM
- CC50 (786-0; [4]): > 100000 nM
- TGI (ACHN): >1.00E−04 Molar
- GI50 (ACHN; Homo sapiens): 1370 nM
- CC50 (ACHN; [4]): > 100000 nM
- Percent Growth (ACHN; log10 conc −4.0 Molar): 19%
- Percent Growth (ACHN; log10 conc −5.0 Molar): 30%
- Percent Growth (ACHN; log10 conc −6.0 Molar): 53%
- Percent Growth (ACHN; log10 conc −7.0 Molar): 92%
- Percent Growth (ACHN; log10 conc −8.0 Molar): 102%
- GI50 (RXF 393; Homo sapiens): 1390 nM
- CC50 (RXF 393; [4]): > 100000 nM
- TGI (RXF 393): 7.75E−06 Molar
- Percent Growth (RXF 393; log10 conc −4.0 Molar): −12%
- Percent Growth (RXF 393; log10 conc −5.0 Molar): −7%
- Percent Growth (RXF 393; log10 conc −6.0 Molar): 60%
- Percent Growth (RXF 393; log10 conc −7.0 Molar): 98%
- Percent Growth (RXF 393; log10 conc −8.0 Molar): 99%
- GI50 (T-47D; Homo sapiens, T47D): 1440 nM
- CC50 (T-47D; Homo sapiens, T47D, T-47D, read-out: LC50 (the source's name)): > 100000 nM
- TGI (T-47D; T-47D): >1.00E−04 Molar
- Percent Growth (T-47D; T-47D, log10 conc −4.0 Molar): 26%
- Percent Growth (T-47D; T-47D, log10 conc −5.0 Molar): 21%
- Percent Growth (T-47D; T-47D, log10 conc −6.0 Molar): 55%
- Percent Growth (T-47D; T-47D, log10 conc −7.0 Molar): 90%
- Percent Growth (T-47D; T-47D, log10 conc −8.0 Molar): 95%

Reference: patent US6992079B2, “Substituted 11-phenyl-dibenzazepine compounds useful for the treatment or prevention of diseases characterized by abnormal cell proliferation” (President Fellows of Harvard College, priority 1997, dated 2006)
